Test results reported in patent US20040014730A1, “Formulations and methods of reducing toxicity of anti-infective agents” (priority 2002, published 2004).

Tests used:
[1] = Stability in acidic and basic aqueous media (proton NMR); format: physicochemical; settings: for stability in aqueous solution: pH 1.5 to 9.0
Method: The stability of 2,2′-dithio-bis-ethane sulfonate at room temperature was determined at pH ranges of 1.5 to 9.0.
The following experiment was performed to determine the stability of 2,2′-dithio-bis-ethane sulfonate in acidic and basic aqueous media. In a typical experiment, 50 mg of 2,2′-dithio-bis-ethane sulfonate (as produced by using the above described method) was dissolved in one ml of water and the pH was adjusted to 1.5, 2.0, 3.0, 4.0, 5.0 and 6.0 by adding 1 N hydrochloric acid in water or the pH was adjusted to 8.0 and 9.0 by adding 1 N sodium hydroxide in water. The reaction mixture was stirred for 24 hours at room temperature, the water was removed at reduced pressure, dissolved in spectral grade D2O, and the proton NMR spectrum was recorded.
The stability of 2,2′-dithio-bis-ethane sulfonate at pH 1.5 was further studied by heating the reaction mixture to 100 degrees Celsius for 10 minutes.

mice = settings: mouse, in vivo, iv
dogs = settings: dog, in vivo, iv
humans = settings: human, in vivo
[2] = cited from earlier work

O=S(=O)([O-])CCSSCCS(=O)(=O)[O-].[Na+].[Na+] [Dimesna, disodium 2,2′-dithiobis ethane sulfonate]
proton NMR spectrum after stirring in aqueous solution ([1]; 50 mg in one ml water, pH 1.5, 2.0, 3.0, 4.0, 5.0, 6.0, 8.0 and 9.0, 24 hours, room temperature): no additional peaks were observed
proton NMR spectrum after heating ([1]; pH 1.5, 100 degrees Celsius for 10 minutes): No change in the proton spectrum
stability in aqueous solution ([1]; room temperature, listed as 2,2′-Dithio-bis-ethane sulfonate): very stable
stability in aqueous solution ([1]; room temperature, listed as 2,2′-dithio-bis-ethane sulfonate): stable
dose administered intravenously with no adverse effects (mice): > 3750 mg/kg
dose administered intravenously with no adverse effects (dogs): > 3750 mg/kg
dose administered with no adverse effects (humans): exceeding 25 g/m^2

[Cl-].[Na+] [common table salt]
accepted oral LD50 [2]: 3750 mg/kg
